Source: PubChem BioAssay AID248 (DTP/NCI, 2004)
Toxic doses and inconclusive results are not listed. No stated cut-off is given here; in the data, active means T/C of 150% or more; inactive means T/C below 125%.

System: L1210 leukemia ip in BDF1 mice, survival T/C
Assay: NCI In Vivo Anticancer Drug Screen. Data for tumor model L1210 Leukemia (intraperitoneal) in B6D2F1 (BDF1) mice
Details: endpoint: mean survival time, higher = longer survival
Outline: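 Each compound was tested against a transplantable tumor grown in mice. The endpoint was survival, with treated animals benchmarked against vehicle controls as a simple ratio.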

[1] = dose: 100.0 mg/kg/injection, schedule: Q04DX003 (ip), vehicle: saline
[2] = dose: 200.0 mg/kg/injection, schedule: Q04DX003 (ip), vehicle: saline
[3] = dose: 100.0 mg/kg/injection, schedule: Q01DX001 (ip), vehicle: Klucel (hydroxypropylcellulose) (HPC)
[4] = dose: 200.0 mg/kg/injection, schedule: Q01DX001 (ip), vehicle: Klucel (hydroxypropylcellulose) (HPC)
[5] = dose: 400.0 mg/kg/injection, schedule: Q01DX001 (ip), vehicle: Klucel (hydroxypropylcellulose) (HPC)

Measured: T/C

c1ccc([C](c2ccccc2)(c2ccccc2)[Ge]([c]2ccccc2)([c]2ccccc2)[c]2ccccc2)cc1
inactive: dose: 12.8 mg/kg/injection, schedule: Q04DX002 (ip), vehicle: saline with Tween-80 93 % of control | dose: 32.0 mg/kg/injection, schedule: Q04DX002 (ip), vehicle: saline with Tween-80 96 % of control | dose: 80.0 mg/kg/injection, schedule: Q04DX002 (ip), vehicle: saline with Tween-80 89 % of control | dose: 200.0 mg/kg/injection, schedule: Q04DX002 (ip), vehicle: saline with Tween-80 89 % of control

CCCCCCCCCCCCCCCCCCCCCC1CCCC1
inactive: dose: 100.0 mg/kg/injection, schedule: Q04DX003 (ip), vehicle: other 96 % of control | dose: 200.0 mg/kg/injection, schedule: Q04DX003 (ip), vehicle: other 94 % of control | dose: 400.0 mg/kg/injection, schedule: Q04DX003 (ip), vehicle: other 96 % of control

O=C(O)c1cccc(CBr)c1CBr
inactive: dose: 6.25 mg/kg/injection, schedule: Q01DX001 (ip), vehicle: saline with Tween-80 97 % of control | dose: 6.25 mg/kg/injection, schedule: Q01DX009 (ip), vehicle: saline with Tween-80 93 % of control | dose: 12.5 mg/kg/injection, schedule: Q01DX001 (ip), vehicle: saline with Tween-80 96 % of control | dose: 12.5 mg/kg/injection, schedule: Q01DX009 (ip), vehicle: saline with Tween-80 96 % of control | dose: 25.0 mg/kg/injection, schedule: Q01DX001 (ip), vehicle: saline with Tween-80 100 % of control

Cc1ccc(C(=O)OCC(=O)c2ccc(-c3ccccc3)cc2)cc1
inactive: dose: 100.0 mg/kg/injection, schedule: Q01DX001 (ip), vehicle: other 89 % of control | dose: 200.0 mg/kg/injection, schedule: Q01DX001 (ip), vehicle: other 90 % of control

CC1CCC2(OC1)OC1CC3C4CCC5CC(O)C(O)CC5(C)C4CCC3(C)C1C2C (configuration not stated)
inactive: dose: 50.0 mg/kg/injection, schedule: Q01DX009 (ip), vehicle: acetone 92 % of control | dose: 100.0 mg/kg/injection, schedule: Q01DX009 (ip), vehicle: acetone 92 % of control | [1] 92 % of control | dose: 200.0 mg/kg/injection, schedule: Q01DX009 (ip), vehicle: acetone 100 % of control | [2] 97 % of control | dose: 400.0 mg/kg/injection, schedule: Q01DX009 (ip), vehicle: acetone 94 % of control | dose: 400.0 mg/kg/injection, schedule: Q04DX003 (ip), vehicle: saline 94 % of control

CNC(=O)C1NCCc2cc(OC)c(OC)cc21 (configuration not stated)
inactive: dose: 100.0 mg/kg/injection, schedule: Q01DX001 (ip), vehicle: saline 97 % of control | dose: 200.0 mg/kg/injection, schedule: Q01DX001 (ip), vehicle: saline 95 % of control | dose: 400.0 mg/kg/injection, schedule: Q01DX001 (ip), vehicle: saline 91 % of control

O=CC(NC(=O)c1ccccc1)C(O)C(O)C(O)CO (configuration not stated)
inactive: [3] 98 % of control | [4] 105 % of control | [5] 105 % of control

Cc1cc(=O)[nH]c2c1CCCCC2
inactive: [3] 98 % of control | [4] 96 % of control | [5] 96 % of control

S=P(c1ccccc1)(N1CCCCC1)N1CCCCC1
inactive: [1] 97 % of control | [2] 93 % of control

COc1cc(C[C@H]2c3cc(OC)c(OC)cc3CCN2C)c(Oc2cc3c(cc2OC)-c2c(OC)c(OC)cc4c2[C@H](C3)N(C)CC4)cc1OC
inactive: dose: 12.0 mg/kg/injection, schedule: Q01DX005 (ip), vehicle: other 110 % of control | dose: 12.0 mg/kg/injection, schedule: Q01DX009 (ip), vehicle: other 97 % of control | dose: 18.0 mg/kg/injection, schedule: Q04DX003 (ip), vehicle: other 107 % of control | dose: 24.0 mg/kg/injection, schedule: Q01DX005 (ip), vehicle: other 106 % of control | dose: 24.0 mg/kg/injection, schedule: Q01DX009 (ip), vehicle: other 105 % of control | dose: 25.0 mg/kg/injection, schedule: Q01DX009 (ip), vehicle: clinical formulation 103 % of control | dose: 27.0 mg/kg/injection, schedule: Q08DX002 (ip), vehicle: other 103 % of control | dose: 36.0 mg/kg/injection, schedule: Q04DX003 (ip), vehicle: other 103 % of control | dose: 48.0 mg/kg/injection, schedule: Q01DX005 (ip), vehicle: other 110 % of control | dose: 48.0 mg/kg/injection, schedule: Q01DX009 (ip), vehicle: other 108 % of control | dose: 50.0 mg/kg/injection, schedule: Q01DX009 (ip), vehicle: clinical formulation 100 % of control | dose: 54.0 mg/kg/injection, schedule: Q08DX002 (ip), vehicle: other 106 % of control | dose: 72.0 mg/kg/injection, schedule: Q04DX003 (ip), vehicle: other 108 % of control | dose: 80.0 mg/kg/injection, schedule: Q01DX015 (ip), vehicle: carboxymethylcellulose (CMC) 88 % of control | dose: 96.0 mg/kg/injection, schedule: Q01DX005 (ip), vehicle: other 108 % of control | dose: 96.0 mg/kg/injection, schedule: Q01DX009 (ip), vehicle: other 105 % of control | dose: 100.0 mg/kg/injection, schedule: Q01DX009 (ip), vehicle: clinical formulation 102 % of control | dose: 100.0 mg/kg/injection, schedule: Q04DX002 (ip), vehicle: Klucel (hydroxypropylcellulose) (HPC) 104 % of control | dose: 108.0 mg/kg/injection, schedule: Q08DX002 (ip), vehicle: other 102 % of control | dose: 144.0 mg/kg/injection, schedule: Q04DX003 (ip), vehicle: other 103 % of control | dose: 160.0 mg/kg/injection, schedule: Q01DX015 (ip), vehicle: carboxymethylcellulose (CMC) 93 % of control | dose: 192.0 mg/kg/injection, schedule: Q01DX005 (ip), vehicle: other 105 % of control | dose: 192.0 mg/kg/injection, schedule: Q01DX009 (ip), vehicle: other 101 % of control | dose: 200.0 mg/kg/injection, schedule: Q04DX002 (ip), vehicle: Klucel (hydroxypropylcellulose) (HPC) 86 % of control | dose: 216.0 mg/kg/injection, schedule: Q08DX002 (ip), vehicle: other 95 % of control | dose: 288.0 mg/kg/injection, schedule: Q04DX003 (ip), vehicle: other 97 % of control | dose: 400.0 mg/kg/injection, schedule: Q04DX002 (ip), vehicle: Klucel (hydroxypropylcellulose) (HPC) 101 % of control

COc1cc([N+](=O)[O-])c(C)cc1Nc1ccc(OC)c(OC)c1
inactive: dose: 100.0 mg/kg/injection, schedule: Q01DX009 (ip), vehicle: saline with Tween-80 105 % of control | dose: 100.0 mg/kg/injection, schedule: Q04DX003 (ip), vehicle: saline with Tween-80 98 % of control | dose: 200.0 mg/kg/injection, schedule: Q01DX009 (ip), vehicle: saline with Tween-80 96 % of control | dose: 200.0 mg/kg/injection, schedule: Q04DX003 (ip), vehicle: saline with Tween-80 93 % of control | dose: 400.0 mg/kg/injection, schedule: Q01DX009 (ip), vehicle: saline with Tween-80 96 % of control | dose: 400.0 mg/kg/injection, schedule: Q04DX003 (ip), vehicle: saline with Tween-80 92 % of control

COc1ccc(/C=C/c2cc[n+](C)cc2)cc1
inactive: dose: 12.5 mg/kg/injection, schedule: Q04DX003 (ip), vehicle: saline with Tween-80 97 % of control | dose: 25.0 mg/kg/injection, schedule: Q04DX003 (ip), vehicle: saline with Tween-80 94 % of control | dose: 50.0 mg/kg/injection, schedule: Q04DX003 (ip), vehicle: saline with Tween-80 94 % of control

Cc1ccc(NC(=O)OCCOc2ccc(Br)cc2)cc1[N+](=O)[O-]
inactive: dose: 100.0 mg/kg/injection, schedule: Q04DX003 (ip), vehicle: Klucel (hydroxypropylcellulose) (HPC) 94 % of control | dose: 200.0 mg/kg/injection, schedule: Q04DX003 (ip), vehicle: Klucel (hydroxypropylcellulose) (HPC) 90 % of control | dose: 400.0 mg/kg/injection, schedule: Q04DX003 (ip), vehicle: Klucel (hydroxypropylcellulose) (HPC) 94 % of control

CN(N=O)c1ccc(/C=C2\C=Cc3ccccc32)cc1
inactive: dose: 50.0 mg/kg/injection, schedule: Q01DX001 (ip), vehicle: carboxymethylcellulose (CMC) 96 % of control | dose: 100.0 mg/kg/injection, schedule: Q01DX001 (ip), vehicle: carboxymethylcellulose (CMC) 93 % of control | dose: 200.0 mg/kg/injection, schedule: Q01DX001 (ip), vehicle: carboxymethylcellulose (CMC) 96 % of control | dose: 400.0 mg/kg/injection, schedule: Q01DX001 (ip), vehicle: carboxymethylcellulose (CMC) 98 % of control

CC12CCCCC1CC(=O)/C(=C\O)C2 (configuration not stated)
inactive: dose: 25.0 mg/kg/injection, schedule: Q04DX002 (ip), vehicle: DMSO 94 % of control | dose: 50.0 mg/kg/injection, schedule: Q04DX002 (ip), vehicle: DMSO 90 % of control
